The source of these data is patent US9340809B2, “Microbial conversion of sugar acids and means therein” (VALTION […] TUTKIMUSKESUS, priority 2005, dated 2016).

For assay [1], the target named is T1, L-galactonic acid dehydratase (Trichoderma reesei, UniProt Q0QWS4).
T1 construct: made in house; host or cells: Saccharomyces cerevisiae strain H3350 (DSM 17214), crude yeast extract
T1 sequence (Q0QWS4 1-450): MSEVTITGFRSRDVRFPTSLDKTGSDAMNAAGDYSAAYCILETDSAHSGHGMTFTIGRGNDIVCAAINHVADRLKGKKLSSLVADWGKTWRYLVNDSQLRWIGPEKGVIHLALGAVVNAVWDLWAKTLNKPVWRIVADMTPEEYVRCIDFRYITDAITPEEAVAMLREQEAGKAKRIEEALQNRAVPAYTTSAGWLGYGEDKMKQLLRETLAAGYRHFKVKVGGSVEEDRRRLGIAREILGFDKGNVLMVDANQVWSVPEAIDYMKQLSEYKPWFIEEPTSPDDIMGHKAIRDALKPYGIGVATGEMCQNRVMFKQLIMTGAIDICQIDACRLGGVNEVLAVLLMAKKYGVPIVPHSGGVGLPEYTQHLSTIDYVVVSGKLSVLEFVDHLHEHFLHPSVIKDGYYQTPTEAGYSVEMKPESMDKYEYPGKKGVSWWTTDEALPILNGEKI
The assay can be described thus: specificity test of L-galactonic acid dehydratase in yeast extract of strain H3350, formation of reducing sugars. Particulars: yeast extract of S. cerevisiae strain H3350 expressing lgd1; formation of reducing sugars followed. In kind it is biochemical, Hypocrea jecorina (Trichoderma reesei). From the text:
The resulting vector was then transformed to a strain of Saccharomyces cerevisiae. The resulting S. cerevisiae strain was then disintegrated by vortexing with glass beads and the yeast extract analyzed for L-galactonic acid dehydratase activity. To assay the L-galactonic acid dehydratase activity L-galactonic acid was mixed with the yeast extract and formation of reducing sugars followed using standard protocols. (Bernfeld, P. (1955) “Amylases, α and β,” In: Methods In Enzymology, vol. 1, Colovick S. P., Kaplan, N. O. (eds.) Academic Press NY, pp 149-158).
To test the specificity of the enzyme the yeast extract as described before was mixed with the sugar acids D-gluconic acid, D-arabonic acid, D-xylonic acid, L-gulonic acid and L-galactonic acid. We followed the formation of reducing sugars as described in the example 1.

Assay [2] concerns the target T1, L-galactonic acid dehydratase. Briefly: conversion of L-galactonic acid by yeast extract of strain H3350, product quantified as 2-keto-3-deoxy sugar acid in a chemical assay. The assay is classed as biochemical, Hypocrea jecorina (Trichoderma reesei). As to conditions: after 21 hours; protein concentration of yeast extract 0.15 g/l; initial L-galactonic acid concentration 10 mM. How it is done:
L-galactonic acid was mixed with the yeast extract of strain H3350 as described in example 1. The reaction product was identified as a 2-keto-3-deoxy sugar acid in a chemical assay and quantified as described by Buchanan et al. (1999) Biochem. J., 343:563-570. The protein concentration of the yeast extract in the reaction medium was 0.15 g/l and the initial L-galactonic acid concentration 10 mM. After 21 hours 1.04 mM of L-threo-3-deoxy-hexulosonic acid was formed.

Molecules are shown by their SMILES.

On to `O=C(O)[C@@H](O)[C@H](O)[C@H](O)CO` [D-arabonic acid], for which the “enzyme activity with the sugar acid as substrate” value (“enzyme activity” below) in assay [1] is recorded as “Activity was observed”.

In assay [2], `O=C(O)[C@@H](O)[C@H](O)[C@H](O)[C@@H](O)CO` [L-galactonic acid] showed a L-threo-3-deoxy-hexulosonic acid formed of 1.04 mM. The “enzyme activity” value in assay [1] was “Activity was observed”.

For `O=C(O)[C@H](O)[C@@H](O)[C@H](O)CO` [D-xylonic acid], in assay [1], the “enzyme activity” value was “does not exhibit activity”.

Take `O=C(O)[C@H](O)[C@@H](O)[C@H](O)[C@H](O)CO` [D-gluconic acid]: the “enzyme activity” value in assay [1] is listed as “does not exhibit activity”.
